Half-life and CLint scaled data for seven compounds are collected here from US10059689B2, “Substituted heteroaryl compounds and methods of use” (Sunshine Lake Pharma Co., Ltd., priority 2014, dated 2018).

Molecules are shown by their SMILES.

The data set can be described thus: Compound stability in rat liver microsomes. As to conditions: for half-life: pH 7.4, 37° C., NADPH, read-out: Rat T1/2; for CLint scaled: pH 7.4, in vivo CLint extrapolated. The class given is in vitro ADME.

Consider `Cc1nn(C)cc1Nc1ncc(Cl)c(NC2CCN(c3ccc(C#N)cn3)CC2)n1` [Ex. 10, 6-(4-((5-chloro-2-((1,3-dimethyl-1H-pyrazol-4-yl)amino)pyrimidin-4-yl)amino)piperidin-1-yl)nicotinonitrile], for which the half-life came out at 17.4 min and the CLint scaled (usually the rate of metabolic loss divided by the concentration) was 142 mL/min/kg.
For `Cc1c2ccc(Nc3ncc(Cl)c(NC4CCN(c5ccc(C#N)nn5)CC4)n3)cc2nn1C` [Ex. 12, 6-(4-((5-chloro-2-((2,3-dimethyl-2H-indazol-6-yl)amino)pyrimidin-4-yl)amino)piperidin-1-yl)pyridazine-3-carbonitrile], in that order: 18.9 min and 131 mL/min/kg.
For `CN(c1nc(Nc2cnn(C)c2)ncc1Cl)C1CCN(c2ccc(C#N)cn2)CC1` [Ex. 5, 6-(4-((5-chloro-2-((1-methyl-1H-pyrazol-4-yl)amino)pyrimidin-4-yl) (methyl)amino)piperidin-1-yl)nicotinonitrile], in that order: 16.5 min and 150 mL/min/kg.
For `Cc1c2ccc(Nc3ncc(Cl)c(NC4CCN(c5ccc(C#N)cn5)CC4)n3)cc2nn1C` [Ex. 4] the same measures were 23.2 min and 107 mL/min/kg.
In the case of `Cc1nn(C)cc1Nc1ncc(Cl)c(NC2CCN(c3ccc(C#N)nn3)CC2)n1` [Ex. 11, 6-(4-((5-chloro-2-((1,3-dimethyl-1H-pyrazol-4-yl)amino)pyrimidin-4-yl)amino)piperidin-1-yl)pyridazine-3-carbonitrile], the half-life stood at 23.6 min and the CLint scaled is 105 mL/min/kg.
As for `Cn1cc(Nc2ncc(Cl)c(NC3CCN(c4ccc(C#N)cn4)CC3)n2)cn1` [Ex. 1, 6-(4-((5-chloro-2-((1-methyl-1H-pyrazol-4-yl)amino)pyrimidin-4-yl)amino)piperidin-1-yl)nicotinonitrile], the half-life is 27.7 min and the CLint scaled was 89.7 mL/min/kg.
For `Cc1cc(Nc2ncc(Cl)c(NC3CCN(c4ccc(C#N)nn4)CC3)n2)nn1C` [Ex. 13, 6-(4-((5-chloro-2-((1,5-dimethyl-1H-pyrazol-3-yl)amino)pyrimidin-4-yl)amino)piperidin-1-yl)pyridazine-3-carbonitrile] the same measures were 9.68 min and 257 mL/min/kg.
